Experiments:
MKN-45 = experiment: Growth inhibition of human MKN45 cells after 72 hrs by methylene blue dye assay; type: functional, cell-based; details: MKN-45, 72 h
[1] = Displacement of [3H]colchicine from microtubule associated protein rich tubulin at 5 uM
[2] = Displacement of [3H]colchicine from microtubule associated protein rich tubulin at 1 uM
KB = experiment: Growth inhibition of human KB cells after 72 hrs by methylene blue dye assay; type: functional, cell-based
NCI-H460 = experiment: Growth inhibition of human H460 cells after 72 hrs by methylene blue dye assay; type: functional, cell-based; details: NCI-H460, 72 h
[3] = Growth inhibition of P-gp 170/MDR overexpressing human KB-vin10 cells after 72 hrs by methylene blue dye assay; type: functional; details: KB-VIN10, 72 h
[4] = Inhibition of microtubule associated protein rich tubulin polymerization

Row | Compound | IC50 (MKN-45) [µM] | inhibition [1] [%] | inhibition [2] [%] | IC50 (KB) [µM] | IC50 (NCI-H460) [µM] | IC50 [3] [µM] | IC50 [4] [µM]
1 | COc1ccc(/C=C\c2cc(OC)c(OC)c(OC)c2)cc1O [COMBRETASTATIN A4] | 0.0056 | 93 | 85 | 0.0022 | 0.0028 |  | 
2 | COc1cc(C(=O)n2ccc3cc4c(cc32)OCO4)cc(OC)c1OC | 0.521 |  |  | 0.575 | 0.559 | 0.587 | 
3 | COc1cc(C(=O)n2c(C)cc3cc(N(C)C)ccc32)cc(OC)c1OC | 0.041 | 89 | 72 | 0.042 | 0.052 | 0.038 | 1.5
4 | COc1ccc2c(c1)c(CN(C)C)cn2C(=O)c1cc(OC)c(OC)c(OC)c1 | > 5 |  |  | > 5 | > 5 | > 5 | 
5 | COc1cc(C(=O)n2ccc3cc(CO)ccc32)cc(OC)c1OC | > 5 |  |  | > 5 | > 5 | > 5 | 
6 | COc1cc(C(=O)n2ccc3cc(C)ccc32)cc(OC)c1OC | 0.314 |  |  | 0.371 | 0.353 | 0.4 | 
7 | COC(=O)c1ccc2c(ccn2C(=O)c2cc(OC)c(OC)c(OC)c2)c1 | > 5 |  |  | > 5 | > 5 | 5 | 
8 | COc1cc(C(=O)n2ccc3c(N)c(OC)ccc32)cc(OC)c1OC | 0.0031 | 93 | 71 | 0.0012 | 0.0054 | 0.0024 | 0.9
9 | COc1cc(C(=O)n2c(C)cc3cc(N)ccc32)cc(OC)c1OC | 0.156 |  |  | 0.345 | 0.334 | 0.312 | 
10 | CCOC(=O)c1c(C)n(C(=O)c2cc(OC)c(OC)c(OC)c2)c2ccc(OC)cc12 | > 5 |  |  | > 5 | > 5 | > 5 | 
11 | COc1ccc2c(c1)CCN2C(=O)c1cc(OC)c(OC)c(OC)c1 | 0.053 | 55 | 27 | 0.089 | 0.098 | 0.084 | 2.6
12 | COc1ccc2c(c1)CCCN2C(=O)c1cc(OC)c(OC)c(OC)c1 | 0.395 |  |  | 0.596 | 0.652 | 0.586 | > 5
13 | COc1cc(C(=O)n2c(C)cc3c(O)c(OC)ccc32)cc(OC)c1OC | 0.0006 | 97 | 94 | 0.0003 | 0.0005 | 0.0003 | 0.6
14 | COc1ccc2c(c1)cc(CO)n2C(=O)c1cc(OC)c(OC)c(OC)c1 | > 5 |  |  | > 5 | > 5 | > 5 | 
15 | COc1ccc(NC(=O)c2cc(OC)c(OC)c(OC)c2)cc1 | > 5 |  |  | > 5 | > 5 | > 5 | 
16 | COc1cc(C(=O)n2ccc3cc(C=O)ccc32)cc(OC)c1OC | > 5 |  |  | > 5 | > 5 | > 5 | 
17 | COc1cc(C(=O)n2ccc3cc(CN(C)C)ccc32)cc(OC)c1OC | > 5 |  |  | > 5 | > 5 | > 5 | 
18 | COc1cc(C(=O)n2ccc3c([N+](=O)[O-])c(OC)ccc32)cc(OC)c1OC | > 5 |  |  | > 5 | > 5 | > 5 | 
19 | COc1cc2c(c(OC)c1OC)-c1ccc(OC)c(=O)cc1[C@@H](NC(C)=O)CC2 [COLCHICINE] | 0.011 |  |  | 0.0114 |  | 0.125 | 3
20 | COc1ccc2c(c1)cc(C(C#N)N(C)C)n2C(=O)c1cc(OC)c(OC)c(OC)c1 (configuration not stated) | > 5 |  |  | > 5 | > 5 | > 5 | 
21 | COc1ccc2c(c1)CC(C)N2C(=O)c1cc(OC)c(OC)c(OC)c1 (configuration not stated) | 0.257 |  |  | 0.37 | 0.413 | 0.372 | 
22 | CCOC(=O)c1cc2cc(OC)ccc2n1C(=O)c1cc(OC)c(OC)c(OC)c1 | 0.101 |  |  | 0.23 | 0.198 | 0.185 | 
